Reference: patent US20250199015A1, “CYCLIN-DEPENDENT KINASE 2 INHIBITORS FOR MEDICAL TREATMENT” (INCYCLIX BIO, LLC, priority 2022, published 2025)
“Also recorded” adds a separate entry of the source.

Experiments:
CYP1A2 = molecular target: T1, CYP1A2 (Homo sapiens, UniProt P05177); test: CYP inhibition in human liver microsomes; assay type: in vitro ADME
T1 construct: human liver microsomes were incubated in the appropriate isoform-specific probe substrate; from tissue; host or cells: human liver microsomes
Description: (§1) The final DMSO content in the reaction mixtures was ≤0.2%. A selective inhibitor of each isoform was also screened as a positive control. Incubations were terminated by the addition of methanol. The quenched samples were incubated at 4° C. for 10 minutes and filtered by centrifugation for 1 minute at 500 rcf. The supernatants were removed, and the probe substrate metabolites were analyzed by LC-MS/MS.
(§2) The LC-MS/MS system consisted of an AB Sciex API5500 mass spectrometer coupled with an Agilent 1290 liquid chromatography system and an Agilent 1290 Infinity HTS chilled autosampler, controlled through Analyst software (AB Sciex). Samples were analyzed using the following solvent system and gradient: Acquity™ C18 Reverse Phase UPLC HSS T3 (1.8 μm) 2.1×50 mm column; 50° C. Column Temp.; 10 μL Injection Vol.; Mobile Phase A: Water+0.1% Formic Acid; Mobile Phase B: Acetonitrile+0.1% Formic Acid; Flow Rate: 0.6 mL/min.

CYP2B6 = molecular target: T2, CYP2B6 (Homo sapiens, UniProt P20813); test: CYP inhibition in human liver microsomes; assay type: in vitro ADME
T2 construct: human liver microsomes were incubated in the appropriate isoform-specific probe substrate; from tissue; host or cells: human liver microsomes
Description: as §1, §2

CYP2C19 = molecular target: T3, CYP2C19 (Homo sapiens, UniProt P33261); test: CYP inhibition in human liver microsomes; assay type: in vitro ADME
T3 construct: human liver microsomes were incubated in the appropriate isoform-specific probe substrate; from tissue; host or cells: human liver microsomes
Description: as §1, §2

CYP2C8 = molecular target: T4, CYP2C8 (Homo sapiens, UniProt P10632); test: CYP inhibition in human liver microsomes; assay type: in vitro ADME
T4 construct: human liver microsomes were incubated in the appropriate isoform-specific probe substrate; from tissue; host or cells: human liver microsomes
Description: as §1, §2

CYP2C9 = molecular target: T5, CYP2C9 (Homo sapiens, UniProt P11712); test: CYP inhibition in human liver microsomes; assay type: in vitro ADME
T5 construct: human liver microsomes were incubated in the appropriate isoform-specific probe substrate; from tissue; host or cells: human liver microsomes
Description: as §1, §2

CYP2D6 = molecular target: T6, CYP2D6 (Homo sapiens, UniProt P10635); test: CYP inhibition in human liver microsomes; assay type: in vitro ADME
T6 construct: human liver microsomes were incubated in the appropriate isoform-specific probe substrate; from tissue; host or cells: human liver microsomes
Description: as §1, §2

[1] = molecular target: T7, CYP3A4 (midazolam as substrate) (Homo sapiens, UniProt P08684); test: CYP inhibition in human liver microsomes; assay type: in vitro ADME
T7 construct: human liver microsomes were incubated in the appropriate isoform-specific probe substrate; from tissue; host or cells: human liver microsomes
Description: as §1, §2

[2] = molecular target: T8, CYP3A4 (testosterone as substrate) (Homo sapiens, UniProt P08684); test: CYP inhibition in human liver microsomes; assay type: in vitro ADME
T8 construct: human liver microsomes were incubated in the appropriate isoform-specific probe substrate; from tissue; host or cells: human liver microsomes
Description: as §1, §2

[3] = GLP 28-day oral toxicity and toxicokinetics study; assay type: in vivo, Sprague Dawley rats; conditions: for AUC0-24 / AUC(0-t) / Cmax / Tmax / half-life: po; for half-life: t1/2
Description: One-hundred and sixty (80 per sex) Sprague Dawley rats were randomly assigned to groups and dosed once daily via oral gavage for 28 consecutive days.
Nominal dose values and sampling times were used for calculations. Any concentration reported as BLQ (LLOQ<1.0 ng/ml) was set equal to zero. Toxicokinetic analyses included Cmax, Tmax, AUC0-24, t1/2, RA Cmax, and RA AUC0-24.
Based on the absence of toxicity, the 28-day maximum tolerated dose (MTD) (also the no observed adverse effect level [NOAEL]) was 1000 mg/kg/day, the highest dose level tested. […] Respiratory function was also not affected by Compound I at any dose level.

[4] = tested on: BALB/c-3T3 mouse fibroblasts; test: In vitro 3T3 NRU phototoxicity test; assay type: cell-based; conditions: UVA 2.5 J/cm^2 vs dark, Neutral Red
Description: BALB/c-3T3 mouse fibroblasts (ATCC) were seeded in 96-well plates at 15,000 cells per well, and grown for 24 hr in DMEM supplemented with 10% FBS, 100 U/mL penicillin, and 100 mg/L streptomycin at 37° C., humidified with 5% CO2.
All test articles were solubilized and serially diluted in DMSO, with the exception of histidine, which was solubilized and diluted in HBSS. All DMSO stocks were diluted in HBSS at the final testing concentrations. The final concentration of DMSO for all test articles was 1%. At the start of the assay, the growth medium was removed from the plates and replaced with test article dilutions. Six replicates were used for each concentration and two plates were prepared for each test article. The cells were incubated in the dark at 37° C., humidified with 5% CO2 with test articles for 1 hr. After the 1 hr incubation period, one plate of each test article was exposed to UVA light, 2.5 J/cm^2 over 18 min which is sufficient to induce a phototoxic response, while the second plate was incubated in the dark at room temperature for the same period of time. At the end of this incubation period, both plates were washed with PBS and fresh medium was added to each well. The plates were incubated at 37° C., humidified with 5% CO2 overnight. […] Cellular Neutral Red was measured by its absorbance at 540 nm.

[5] = female, Sprague Dawley, rat, in vivo, 100 mg/kg/day
[6] = female, Sprague Dawley, rat, in vivo, 300 mg/kg/day
[7] = female, Sprague Dawley, rat, in vivo, 1000 mg/kg/day
[8] = male, Sprague Dawley, rat, in vivo, 100 mg/kg/day
[9] = male, Sprague Dawley, rat, in vivo, 300 mg/kg/day
[10] = male, Sprague Dawley, rat, in vivo, 1000 mg/kg/day

T2 sequence (P20813 whole entry, canonical isoform): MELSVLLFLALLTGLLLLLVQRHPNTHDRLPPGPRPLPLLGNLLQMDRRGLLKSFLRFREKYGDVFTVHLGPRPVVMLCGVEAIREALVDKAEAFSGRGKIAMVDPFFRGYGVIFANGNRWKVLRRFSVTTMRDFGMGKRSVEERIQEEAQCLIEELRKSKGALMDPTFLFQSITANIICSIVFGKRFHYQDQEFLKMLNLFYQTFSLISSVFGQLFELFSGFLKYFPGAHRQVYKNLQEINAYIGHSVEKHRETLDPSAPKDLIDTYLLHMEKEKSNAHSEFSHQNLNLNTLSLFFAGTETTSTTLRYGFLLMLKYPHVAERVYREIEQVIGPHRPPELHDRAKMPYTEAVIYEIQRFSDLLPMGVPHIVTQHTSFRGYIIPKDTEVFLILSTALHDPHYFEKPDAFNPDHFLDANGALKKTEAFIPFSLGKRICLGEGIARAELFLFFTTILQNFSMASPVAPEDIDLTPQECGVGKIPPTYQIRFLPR
T6 sequence (P10635 whole entry, canonical isoform): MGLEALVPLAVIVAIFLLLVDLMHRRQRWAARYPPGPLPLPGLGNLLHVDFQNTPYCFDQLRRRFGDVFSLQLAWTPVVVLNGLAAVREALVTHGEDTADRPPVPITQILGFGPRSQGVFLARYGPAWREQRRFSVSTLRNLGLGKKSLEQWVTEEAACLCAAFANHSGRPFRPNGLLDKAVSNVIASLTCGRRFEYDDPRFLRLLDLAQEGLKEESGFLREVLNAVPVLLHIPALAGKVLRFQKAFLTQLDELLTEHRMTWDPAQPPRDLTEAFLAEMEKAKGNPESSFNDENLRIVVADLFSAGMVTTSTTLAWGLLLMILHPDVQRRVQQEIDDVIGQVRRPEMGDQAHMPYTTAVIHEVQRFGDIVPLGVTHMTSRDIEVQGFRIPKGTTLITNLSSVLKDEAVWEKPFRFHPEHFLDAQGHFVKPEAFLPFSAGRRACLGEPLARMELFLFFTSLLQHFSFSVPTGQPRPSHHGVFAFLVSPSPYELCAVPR
T4 sequence (P10632 whole entry, canonical isoform): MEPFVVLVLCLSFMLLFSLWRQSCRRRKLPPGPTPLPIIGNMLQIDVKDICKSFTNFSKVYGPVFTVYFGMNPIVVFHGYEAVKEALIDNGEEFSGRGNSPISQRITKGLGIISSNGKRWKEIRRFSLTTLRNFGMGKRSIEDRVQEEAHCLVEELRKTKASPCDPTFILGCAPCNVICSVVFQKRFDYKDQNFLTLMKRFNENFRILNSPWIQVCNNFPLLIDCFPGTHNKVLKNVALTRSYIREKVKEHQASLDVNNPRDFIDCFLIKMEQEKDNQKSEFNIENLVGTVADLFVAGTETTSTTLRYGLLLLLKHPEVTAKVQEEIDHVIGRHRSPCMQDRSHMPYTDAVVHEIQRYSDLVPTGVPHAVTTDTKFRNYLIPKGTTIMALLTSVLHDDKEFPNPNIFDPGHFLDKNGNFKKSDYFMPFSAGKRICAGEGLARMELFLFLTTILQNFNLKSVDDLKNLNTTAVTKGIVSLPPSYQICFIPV
T7 sequence (P08684 whole entry, canonical isoform): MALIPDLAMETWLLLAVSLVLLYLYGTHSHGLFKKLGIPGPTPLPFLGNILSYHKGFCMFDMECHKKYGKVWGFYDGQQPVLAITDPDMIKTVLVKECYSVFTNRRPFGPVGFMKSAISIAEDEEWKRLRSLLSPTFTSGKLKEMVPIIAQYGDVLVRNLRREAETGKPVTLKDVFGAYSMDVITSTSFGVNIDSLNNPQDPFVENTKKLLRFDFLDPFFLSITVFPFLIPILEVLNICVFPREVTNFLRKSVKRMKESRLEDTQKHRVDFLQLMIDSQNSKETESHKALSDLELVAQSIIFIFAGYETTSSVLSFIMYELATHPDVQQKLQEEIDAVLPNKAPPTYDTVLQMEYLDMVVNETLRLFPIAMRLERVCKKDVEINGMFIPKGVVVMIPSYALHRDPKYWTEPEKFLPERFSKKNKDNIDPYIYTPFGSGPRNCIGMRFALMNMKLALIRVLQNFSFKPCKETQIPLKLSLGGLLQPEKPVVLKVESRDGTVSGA
T3 sequence (P33261 whole entry, canonical isoform): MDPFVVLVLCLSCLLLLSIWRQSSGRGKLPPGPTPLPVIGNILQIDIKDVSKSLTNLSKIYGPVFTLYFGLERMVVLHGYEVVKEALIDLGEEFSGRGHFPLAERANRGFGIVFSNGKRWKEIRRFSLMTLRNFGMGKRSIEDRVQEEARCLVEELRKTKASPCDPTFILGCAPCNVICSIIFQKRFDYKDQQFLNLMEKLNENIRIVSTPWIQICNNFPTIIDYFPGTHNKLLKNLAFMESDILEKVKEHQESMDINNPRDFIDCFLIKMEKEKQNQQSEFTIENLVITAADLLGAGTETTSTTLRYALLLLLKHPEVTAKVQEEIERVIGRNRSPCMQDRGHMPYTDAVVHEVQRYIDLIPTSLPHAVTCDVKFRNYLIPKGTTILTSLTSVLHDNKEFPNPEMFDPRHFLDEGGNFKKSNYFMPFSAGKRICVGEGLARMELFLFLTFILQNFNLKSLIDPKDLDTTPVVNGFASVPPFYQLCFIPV
T1 sequence (P05177 whole entry, canonical isoform): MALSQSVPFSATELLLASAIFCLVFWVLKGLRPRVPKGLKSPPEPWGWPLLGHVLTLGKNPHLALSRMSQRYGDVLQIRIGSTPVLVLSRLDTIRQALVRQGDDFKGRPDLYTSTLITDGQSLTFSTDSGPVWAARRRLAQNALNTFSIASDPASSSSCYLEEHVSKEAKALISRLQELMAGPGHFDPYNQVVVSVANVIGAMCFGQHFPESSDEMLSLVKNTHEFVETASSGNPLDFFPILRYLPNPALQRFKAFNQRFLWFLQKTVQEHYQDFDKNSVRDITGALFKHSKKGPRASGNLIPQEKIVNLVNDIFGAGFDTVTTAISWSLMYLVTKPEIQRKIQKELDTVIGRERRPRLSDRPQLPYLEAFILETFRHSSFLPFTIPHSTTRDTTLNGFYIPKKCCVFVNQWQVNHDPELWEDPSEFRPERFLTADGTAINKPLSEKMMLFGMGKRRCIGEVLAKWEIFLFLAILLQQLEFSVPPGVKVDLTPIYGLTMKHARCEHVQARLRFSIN
T8 sequence (P08684 whole entry, canonical isoform): as the sequence (P08684 whole entry, canonical isoform) above
T5 sequence (P11712 whole entry, canonical isoform): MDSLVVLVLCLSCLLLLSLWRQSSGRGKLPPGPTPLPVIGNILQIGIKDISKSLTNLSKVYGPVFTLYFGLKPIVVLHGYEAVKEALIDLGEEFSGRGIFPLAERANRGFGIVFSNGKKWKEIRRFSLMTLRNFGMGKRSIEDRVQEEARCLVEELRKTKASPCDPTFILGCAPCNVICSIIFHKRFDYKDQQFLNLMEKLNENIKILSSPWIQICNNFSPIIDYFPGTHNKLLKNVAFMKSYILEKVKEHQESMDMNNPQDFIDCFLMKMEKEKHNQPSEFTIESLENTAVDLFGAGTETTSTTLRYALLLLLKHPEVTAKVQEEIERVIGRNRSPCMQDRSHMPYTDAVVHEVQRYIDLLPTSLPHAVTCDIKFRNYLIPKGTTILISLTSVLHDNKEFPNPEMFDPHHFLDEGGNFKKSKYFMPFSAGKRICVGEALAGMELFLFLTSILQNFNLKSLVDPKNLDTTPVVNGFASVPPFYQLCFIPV

SMILES: NS(=O)(=O)c1ccc(Nc2ncc3cc4n(c3n2)C2(CCCCC2)C(=O)NN4)cc1 [Compound I]
- IC50 (CYP1A2; CYP1A2, substrate Tacrine, human liver microsomes): > 25 µM
- CYP1A2 inhibition (CYP1A2; up to 25 μM): Marginal to no inhibition
- IC50 (CYP2B6; CYP2B6, substrate Bupropion, human liver microsomes): > 25 µM
- CYP2B6 inhibition (CYP2B6; up to 25 μM): Marginal to no inhibition
- IC50 (CYP2C19; pH 7.4, probe mephenytoin, CYP2C19, substrate Mephenytoin, human liver microsomes): 25 µM
- CYP2C19 inhibition (CYP2C19; up to 25 μM): Marginal to no inhibition
- IC50 (CYP2C8; CYP2C8, substrate Amodiaquine, human liver microsomes): > 25 µM
- CYP2C8 inhibition (CYP2C8; up to 25 μM): Marginal to no inhibition
- IC50 (CYP2C9): 14.9 µM
- IC50 (CYP2D6; CYP2D6, substrate Dextromethorphan, human liver microsomes): > 25 µM
- CYP2D6 inhibition (CYP2D6; up to 25 μM): Marginal to no inhibition
- IC50 ([1]; CYP3A4, substrate Midazolam, human liver microsomes): 24.3 µM
- CYP3A4 inhibition (midazolam as substrate) ([1]; up to 25 μM): Marginal to no inhibition
- IC50 [2]: 9.59 µM
- tolerability ([3]; PO, up to 28 days, up to 1000 mg/kg/day): generally well tolerated; also recorded: well tolerated in rats without adverse effects of any sort
- mean body weight and body weight gain ([3]; any dose level): did not affect
- MTD at 28 days ([3]; both sexes, Sprague Dawley, rat, in vivo, oral, highest dose level tested, read-out: 28-day maximum tolerated dose (MTD) (also NOAEL)): 1000 mg/kg/day
- AUC0-24 [3, 5]: 7570 ng·h/mL
- AUC(0-t) ([3]; female, Sprague Dawley, rat, in vivo, 100 mg/kg/day, AUC0-24): 9580 ng·h/mL
- Cmax ([3]; female, Sprague Dawley, rat, in vivo, 100 mg/kg/day, Cmax): 3330 ng/mL
- Tmax [3, 5]: 0.25 h
- half-life [3, 5]: 3.93 h
- AUC0-24 [3, 6]: 11600 ng·h/mL
- AUC(0-t) ([3]; female, Sprague Dawley, rat, in vivo, 300 mg/kg/day, AUC0-24): 11400 ng·h/mL
- Cmax ([3]; female, Sprague Dawley, rat, in vivo, 300 mg/kg/day, Cmax): 3070 ng/mL
- Tmax [3, 6]: 0.5 h
- half-life [3, 6]: 3.98 h
- AUC0-24 [3, 7]: 12700 ng·h/mL
- AUC(0-t) ([3]; female, Sprague Dawley, rat, in vivo, 1000 mg/kg/day, AUC0-24): 12600 ng·h/mL
- Tmax [3, 7]: 0.5 h
- AUC(0-t) ([3]; female, Sprague Dawley, rat, in vivo, 1000 mg/kg/day, plasma AUC0-24): 12700 ng·h/mL
- Cmax ([3]; female, Sprague Dawley, rat, in vivo, 1000 mg/kg/day, plasma Cmax): 1390 ng/mL
- half-life [3, 7]: 5.89 h
- AUC0-24 [3, 8]: 8310 ng·h/mL
- AUC(0-t) ([3]; male, Sprague Dawley, rat, in vivo, 100 mg/kg/day, AUC0-24): 11000 ng·h/mL
- Cmax ([3]; male, Sprague Dawley, rat, in vivo, 100 mg/kg/day, Cmax): 1010 ng/mL
- half-life [3, 8]: 3.27 h
- AUC0-24 [3, 9]: 9750 ng·h/mL
- AUC(0-t) ([3]; male, Sprague Dawley, rat, in vivo, 300 mg/kg/day, AUC0-24): 10700 ng·h/mL
- Tmax [3, 9]: 0.5 h
- half-life [3, 9]: 5.54 h
- AUC0-24 [3, 10]: 8130 ng·h/mL
- AUC(0-t) ([3]; male, Sprague Dawley, rat, in vivo, 1000 mg/kg/day, AUC0-24): 11300 ng·h/mL
- AUC(0-t) ([3]; male, Sprague Dawley, rat, in vivo, 1000 mg/kg/day, plasma AUC0-24): 8130 ng·h/mL
- Cmax ([3]; male, Sprague Dawley, rat, in vivo, 1000 mg/kg/day, plasma Cmax): 647 ng/mL
- half-life [3, 10]: 9.35 h
- accumulation after 28 days of once-daily dosing ([3]; rat, in vivo): no accumulation
- phototoxicity [4]: negative for causing phototoxicity
